Test results: article PMC10804494 (BMC Complementary Medicine and Therapies, 2024)
Converted amounts (≈) assume the structure as drawn. Counter-ions that a name gives are not always drawn. Like-named read-outs stand apart in the source and are kept apart here.

Legend:
[1] = system: highly pathogenic avian influenza A/chicken/Egypt/N12640A/2016 (H5N1); test: microbe, parasite or virus in culture; format: cell-based, influenza A/H5N1 virus
influenza A/H5N1 virus [2] = test: microbe, parasite or virus in culture; format: cell-based
[3] = system: seasonal influenza A/Egypt/NRC098/2019(H1N1); test: microbe, parasite or virus in culture; format: cell-based; conditions: H1N1, MDCK, 72 h
influenza A/H5N1 virus [4] = test: microbe, parasite or virus in culture; format: cell-based; conditions: H5N1, MDCK, read-out: Viral inhibition percentage, Viral Replication
influenza A/H5N1 virus [5] = test: microbe, parasite or virus in culture; format: cell-based; conditions: H5N1, MDCK, read-out: Viral inhibition percentage, Virucidal
influenza A/H5N1 = format: cell-based, influenza A/H5N1 virus
influenza A/H1N1 = test: Plaque reduction assay, A/H1N1; format: cell-based, influenza A/H1N1 virus; conditions: A/H1N1, MDCK, low non-toxic concentrations, Fig. 4
in vitro = conditions: dog
[6] = cited from earlier work
MDCK cells = conditions: dog
[7] = system: IAV (A/Puerto Rico/8/1934(H1N1)); conditions: A/Puerto Rico/8/1934(H1N1) in mice; cited from earlier work
[8] = Influenza A virus, H5N1, MDCK, 72 h
[9] = Influenza A virus, H5N1, MDCK, read-out: Viral inhibition percentage, Viral Adsorption

Q: With CN1C2CC(OC(=O)C(CO)c3ccccc3)CC1C1OC12 (single isomer, unassigned; (-)) [(-)Scopolamine HCl] as the compound, how does the IC50 [1, 8] read?
A: 360 µg/mL

Q: What does the source list for CN1C2CCC1CC(OC(=O)C(CO)c1ccccc1)C2 (stereo not shown) [Atropine sulphate]?
A: inhibition at 1 µg/mL (influenza A/H5N1 virus [2]; [9]): 36.2%; inhibition at 10 µg/mL (influenza A/H5N1 virus [2]; [9]): 45.2%; inhibition at 100 µg/mL (influenza A/H5N1 virus [2]; [9]): 52.4%; IC50 [3]: 0.204 µg/mL; inhibition at 1 µg/mL (influenza A/H5N1 virus [4]): 32.8%; inhibition at 10 µg/mL (influenza A/H5N1 virus [4]): 41.2%; inhibition at 100 µg/mL (influenza A/H5N1 virus [4]): 52.9%; inhibition at 1 µg/mL (influenza A/H5N1 virus [5]): 90.5%; inhibition at 10 µg/mL (influenza A/H5N1 virus [5]): 97.6%; inhibition at 100 µg/mL (influenza A/H5N1 virus [5]): 100%; IC50 [1, 8]: 2.26 µg/mL; reduction of viral titers (in words) (influenza A/H5N1): high capacity to reduce viral titers; reduction of viral titers (in words) (influenza A/H1N1): high capacity to reduce viral titers

Q: What does the source list for Cn1c(=O)c2c(ncn2C)n(C)c1=O [Caffeine]?
A: IC50 [1, 8]: 85.7 µg/mL (≈ 441 µM); CC50 (in vitro): > 10000 µg/mL

Q: Which results are given for COc1cc2c(c(OC)c1OC)-c1ccc(OC)c(=O)cc1[C@@H](NC(C)=O)CC2 [Colchicine, (S)-N-(1,2,3,10-tetramethoxy-9-oxo-5,6,7,9-tetrahydrobenzo[a]heptalen-7-yl)acetamide]?
A: Viral inhibition percentage, Viral Adsorption (influenza A/H5N1 virus [2]): 73.05%; inhibition at 1 µg/mL (influenza A/H5N1 virus [2]; [9]): 55%; inhibition at 10 µg/mL (influenza A/H5N1 virus [2]; [9]): 64.1%; inhibition at 100 µg/mL (influenza A/H5N1 virus [2]; [9]): 73%; toxic range [6]: 0.6 mg; inhibition at 1 µg/mL (influenza A/H5N1 virus [4]): 85.7%; inhibition at 10 µg/mL (influenza A/H5N1 virus [4]): 87%; inhibition at 100 µg/mL (influenza A/H5N1 virus [4]): 91.1%; inhibition at 1 µg/mL (influenza A/H5N1 virus [5]): 25%; inhibition at 10 µg/mL (influenza A/H5N1 virus [5]): 38%; inhibition at 100 µg/mL (influenza A/H5N1 virus [5]): 47.1%; CC50 (MDCK cells): 3370 µg/mL (≈ 8440 µM); CC50 (in vitro): 2380 µg/mL (≈ 5960 µM); reduction of viral titers (in words) (influenza A/H5N1): high capacity to reduce viral titers; reduction of viral titers (in words) (influenza A/H1N1): high capacity to reduce viral titers

Q: For CN[C@@H](C)[C@H](O)c1ccccc1 [Ephedrine HCl], which IC50 [1] is on record?
A: 186 µg/mL

Q: What about the IC50 [1, 8] of the same compound?
A: 186 µg/mL

Q: And the CC50 (in vitro)?
A: > 10000 µg/mL

Q: With COc1ccc(Cc2nccc3cc(OC)c(OC)cc23)cc1OC [Papaverine HCl] as the compound, how does the “anti-influenza activity against A/H5N1 virus (in words)” value [1] read?
A: poor anti-influenza activity

Q: And the CC50 (in vitro)?
A: 274 µg/mL

Q: With CC[C@@H]1C(=O)OC[C@@H]1Cc1cncn1C [Pilocarpine HCl] as the compound, how does the inhibition at 10 µg/mL (influenza A/H5N1 virus [2]; [9]) read?
A: 37.8%

Q: What about the inhibition at 100 µg/mL (influenza A/H5N1 virus [2]; [9]) of the same compound?
A: 44.6%

Q: And the inhibition at 1000 µg/mL (influenza A/H5N1 virus [2]; [9])?
A: 56.9%

Q: What about the IC50 [3] of the same compound?
A: 0.637 µg/mL

Q: And the inhibition at 10 µg/mL (influenza A/H5N1 virus [4])?
A: 35.3%

Q: What about the inhibition at 100 µg/mL (influenza A/H5N1 virus [4]) of the same compound?
A: 46.9%

Q: What about the inhibition at 1000 µg/mL (influenza A/H5N1 virus [4]) of the same compound?
A: 53.1%

Q: What about the inhibition at 10 µg/mL (influenza A/H5N1 virus [5]) of the same compound?
A: 94.9%

Q: What about the inhibition at 100 µg/mL (influenza A/H5N1 virus [5]) of the same compound?
A: 99.1%

Q: And the inhibition at 1000 µg/mL (influenza A/H5N1 virus [5])?
A: 100%

Q: What about the IC50 [1, 8] of the same compound?
A: 0.21 µg/mL

Q: And the CC50 (in vitro)?
A: 3320 µg/mL

Q: And the “reduction of viral titers (in words)” value (influenza A/H5N1)?
A: high capacity to reduce viral titers

Q: And the “reduction of viral titers (in words)” value (influenza A/H1N1)?
A: high capacity to reduce viral titers

Q: For C=C[C@H]1C[N@@]2CC[C@H]1C[C@@H]2[C@@H](O)c1ccnc2ccc(OC)cc12 [Quinidine Sulphate, Quinidine sulphate], which CC50 (in vitro) is on record?
A: > 10000 µg/mL

Q: With C=C[C@H]1C[N@@]2CC[C@H]1C[C@H]2[C@H](O)c1ccnc2ccc(OC)cc12 [Quinine sulphate] as the compound, how does the “antiviral effect in mice (in words)” value [7] read?
A: exert an antiviral effect

Q: And the “anti-influenza activity against A/H5N1 virus (in words)” value [1]?
A: no anti-influenza activity

Q: What about the CC50 (in vitro) of the same compound?
A: > 10000 µg/mL

Q: Which CC50 (in vitro) does the source give for C[n+]1cccc(C(=O)[O-])c1 [Trigonelline HCl] here?
A: > 10000 µg/mL

Q: Which results are given for CC(=O)N[C@H]1[C@H]([C@H](O)[C@H](O)CO)OC(C(=O)O)=C[C@@H]1N=C(N)N [Zanamivir]?
A: IC50 [3]: 0.265 µg/mL (≈ 0.797 µM); IC50 [1, 8]: 0.358 µg/mL (≈ 1.08 µM); CC50 (in vitro): > 10000 µg/mL
